37 compounds from US20260356817A1, “AMINOPYRIMIDINE AND AMINOTRIAZINE DERIVATIVES AS MYC PROTEIN MODULATORS” (Sanford Burnham Prebys Medical Discovery Institute, priority 2022, published 2026) can be followed below.

As a reminder, the IC50 is the concentration that inhibits the measured activity by half.

For the assay, the system named is Myc. Description: Myc inhibition assay: Myc expression per cell by anti-Myc immunofluorescence, high-content imaging. The format is cell-based, human (patient-derived medulloblastoma xenograft cells). Particulars: medulloblastoma PDX cells, 4 h. The method in brief: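 IC50 comes from high-content imaging of per-cell Myc immunostaining (DAPI-labelled nuclei) after 4 h compound exposure. Cells were freshly dissociated medulloblastoma PDX tumours, never passaged in vitro, grown in NSG mouse cerebellum, plated serum-free and recovered overnight before treatment.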

The mark [1] stands for this setting: Table 1, read-out: IC50 (Myc inhibition).
The mark [2] stands for this setting: Table 2, read-out: MYC Inhibition IC50.

Read-outs that look alike come from different tables or passages of the source. Some results are limits rather than exact numbers.

For the compound `COc1cccc(-c2ccnc(N(C)c3ccccc3)n2)c1` [Compound 247, 4-(3-methoxyphenyl)-N-methyl-N-phenylpyrimidin-2-amine], the IC50 was in the range of 1000 to 10000 nM under setting [1] and 1000 to 10000 nM under setting [2].
For the compound `c1cncc(-c2cccc(Nc3nccc(-c4ccc5[nH]cnc5c4)n3)c2)c1` [Compound 45, 4-(1H-benzo[d]imidazol-5-yl)-N-(3-(pyridin-3-yl)phenyl)pyrimidin-2-amine], the IC50 is under 200 nM under setting [1] and under 200 nM under setting [2].
As for `COc1cc(-c2ccnc(Nc3cncc(C(F)(F)F)c3)n2)ccn1` [Compound 155, 4-(2-methoxypyridin-4-yl)-N-(5-(trifluoromethyl)pyridin-3-yl)pyrimidin-2-amine], the IC50 under setting [1] was in the range of 10000 to 100000 nM and the IC50 under setting [2] lay within 10000 to 100000 nM.
Consider `COc1ccc(Oc2ccnc(Nc3cccc(C(F)(F)F)c3)n2)cn1` [Compound 109, 4-((6-methoxypyridin-3-yl)oxy)-N-(3-(trifluoromethyl)phenyl)pyrimidin-2-amine], for which the IC50 by setting is: under setting [1], 1000 to 10000 nM; under setting [2], 1000 to 10000 nM.
Turning to `COc1cccc(-c2ccnc(Nc3ccccc3)n2)c1` [Compound 253, 4-(3-methoxyphenyl)-N-phenylpyrimidin-2-amine], the IC50 is, setting by setting: under setting [1], 10000 to 100000 nM; under setting [2], 10000 to 100000 nM.
Consider `COc1ncc(-c2ccnc(Nc3cccc(C(F)(F)F)c3)n2)s1` [Compound 143, 4-(2-methoxythiazol-5-yl)-N-(3-(trifluoromethyl)phenyl)pyrimidin-2-amine], for which the IC50 under setting [1] was 200 to 1000 nM and the IC50 under setting [2] fell in the range of 200 to 1000 nM.
In the case of `Oc1cc(-c2ccnc(Nc3ccncn3)n2)ccn1` [Compound 175, 4-(2-(pyrimidin-4-ylamino)pyrimidin-4-yl)pyridin-2-ol], the IC50 under setting [1] lay within 10000 to 100000 nM and the IC50 under setting [2] was 10000 to 100000 nM.
Turning to `O=C(c1cccc(Nc2nccc(-c3ccc4[nH]cnc4c3)n2)c1)N1CCOCC1` [Compound 11, (3-((4-(1H-benzo[d]imidazol-5-yl)pyrimidin-2-yl)amino)phenyl)(morpholino)methanone], the IC50 is 200 to 1000 nM under setting [1] and 200 to 1000 nM under setting [2].
On to `COc1cccc(-c2ccnc(Nc3cccc(Cl)c3)n2)c1` [Compound 249, N-(3-chlorophenyl)-4-(3-methoxyphenyl)pyrimidin-2-amine], for which the IC50 fell in the range of 1000 to 10000 nM under setting [1] and 1000 to 10000 nM under setting [2].
Consider `Oc1cncc(-c2ccnc(Nc3ccccc3)n2)c1` [Compound 219, 5-(2-(phenylamino)pyrimidin-4-yl)pyridin-3-ol], for which the IC50 was in the range of 1000 to 10000 nM under setting [1] and 1000 to 10000 nM under setting [2].
As to `NCCOc1cccc(Nc2nccc(-c3ccnc(O)c3)n2)c1` [Compound 120, 4-(2-((3-(2-aminoethoxy)phenyl)amino)pyrimidin-4-yl)pyridin-2-ol], the IC50 under setting [1] lay in the range of 1000 to 10000 nM and the IC50 under setting [2] was 1000 to 10000 nM.
Consider `FC(F)(F)Oc1cccc(Nc2nccc(-c3ccc4[nH]cnc4c3)n2)c1` [Compound 100, 4-(1H-benzo[d]imidazol-5-yl)-N-(3-(trifluoromethoxy)phenyl)pyrimidin-2-amine], for which the IC50 by setting is: under setting [1], 200 to 1000 nM; under setting [2], 200 to 1000 nM.
For `CCN(CC)C(=O)c1cccc(Nc2nccc(-c3ccc4[nH]cnc4c3)n2)c1` [Compound 19, 3-((4-(1H-benzo[d]imidazol-5-yl)pyrimidin-2-yl)amino)-N,N-diethylbenzamide], the IC50 runs as follows: under setting [1], 200 to 1000 nM; under setting [2], 200 to 1000 nM.
For the compound `Cn1cc(Nc2nccc(-c3ccc4[nH]cnc4c3)n2)cn1` [Compound 77, 4-(1H-benzo[d]imidazol-5-yl)-N-(1-methyl-1H-pyrazol-4-yl)pyrimidin-2-amine], the IC50 fell in the range of 200 to 1000 nM under setting [1] and 200 to 1000 nM under setting [2].
Turning to `Clc1cccc(Nc2nccc(-c3cnc4nc[nH]c4c3)n2)c1` [Compound 141, N-(3-chlorophenyl)-4-(1H-imidazo[4,5-b]pyridin-6-yl)pyrimidin-2-amine], the concentration for half-maximal inhibition (IC50) was under 200 nM under setting [1] and under 200 nM under setting [2].
For the compound `FC(F)(F)c1cccc(Nc2nccc(NCCc3cnc[nH]3)n2)c1` [Compound 111, N^4-(2-(1H-Imidazol-4-yl)ethyl)-N^2-(3-(trifluoromethyl)phenyl)pyrimidine-2,4-diamine], the IC50 under setting [1] was 1000 to 10000 nM and the IC50 under setting [2] was in the range of 1000 to 10000 nM.
On to `FC(F)(F)c1cccc(Nc2nccc(-c3c[nH]c4cnccc34)n2)c1` [Compound 30, 4-(1H-pyrrolo[2,3-c]pyridin-3-yl)-N-(3-(trifluoromethyl)phenyl)pyrimidin-2-amine], for which the IC50 by setting is: under setting [1], 1000 to 10000 nM; under setting [2], 1000 to 10000 nM.
In the case of `Oc1cccc(-c2ccnc(Nc3cccc(C(F)(F)F)c3)n2)c1` [Compound 173, 3-(2-((3-(trifluoromethyl)phenyl)amino)pyrimidin-4-yl)phenol], the IC50 fell in the range of 10000 to 100000 nM under setting [1] and 10000 to 100000 nM under setting [2].
With `Oc1cccc(Nc2nccc(-c3ccc4[nH]cnc4c3)n2)c1` [Compound 90, 3-((4-(1H-benzo[d]imidazol-5-yl)pyrimidin-2-yl)amino)phenol], the IC50 is, setting by setting: under setting [1], under 200 nM; under setting [2], under 200 nM.
Turning to `FC(F)(F)c1cncc(Nc2nccc(-c3ccc4[nH]cnc4c3)n2)c1` [Compound 14, 4-(1H-benzo[d]imidazol-5-yl)-N-(5-(trifluoromethyl)pyridin-3-yl)pyrimidin-2-amine], the IC50 lay within 10000 to 100000 nM under setting [1] and 10000 to 100000 nM under setting [2].
For `COc1ccnc(-c2ccnc(Nc3ccccc3)n2)c1` [Compound 217, 4-(4-methoxypyridin-2-yl)-N-phenylpyrimidin-2-amine], the IC50 is, setting by setting: under setting [1], 10000 to 100000 nM; under setting [2], 10000 to 100000 nM.
In the case of `Cc1cccc(Nc2nccc(-c3ccc4[nH]cnc4c3)n2)c1` [Compound 40, 4-(1H-benzo[d]imidazol-5-yl)-N-(m-tolyl)pyrimidin-2-amine], the IC50 under setting [1] fell in the range of 200 to 1000 nM and the IC50 under setting [2] was in the range of 200 to 1000 nM.
Take `Cc1ccccc1-c1cccc(Nc2nccc(-c3ccc4[nH]cnc4c3)n2)c1` [Compound 33, 4-(1H-benzo[d]imidazol-5-yl)-N-(2′-methyl-[1,1′-biphenyl]-3-yl)pyrimidin-2-amine]: the IC50 by setting is: under setting [1], 200 to 1000 nM; under setting [2], 200 to 1000 nM.
With `FC(F)(F)c1cccc(Nc2nccc(-c3ccc4cc[nH]c4c3)n2)c1` [Compound 172, 4-(1H-indol-6-yl)-N-(3-(trifluoromethyl)phenyl)pyrimidin-2-amine], the IC50 is, setting by setting: under setting [1], 1000 to 10000 nM; under setting [2], 1000 to 10000 nM.
`O=S(=O)(NC1CC1)c1cccc(Nc2nccc(-c3ccc4[nH]cnc4c3)n2)c1` [Compound 24, 3-((4-(1H-benzo[d]imidazol-5-yl)pyrimidin-2-yl)amino)-N-cyclopropylbenzenesulfonamide]: the IC50 is, setting by setting: under setting [1], 200 to 1000 nM; under setting [2], 200 to 1000 nM.
For `O=S(=O)(Nc1ccccc1F)c1cccc(Nc2nccc(-c3ccc4[nH]cnc4c3)n2)c1` [Compound 12, 3-((4-(1H-benzo[d]imidazol-5-yl)pyrimidin-2-yl)amino)-N-(2-fluorophenyl)benzenesulfonamide], the IC50 is 200 to 1000 nM under setting [1] and 200 to 1000 nM under setting [2].
With `COc1cccc(Nc2nccc(-c3ccnc(O)c3)n2)c1` [Compound 191, 4-(2-((3-methoxyphenyl)amino)pyrimidin-4-yl)pyridin-2-ol], the IC50 by setting is: under setting [1], 1000 to 10000 nM; under setting [2], 1000 to 10000 nM.
On to `COc1cc(-c2ccnc(Nc3cc(F)cc(F)c3)n2)ccn1` [Compound 148, N-(3,5-difluorophenyl)-4-(2-methoxypyridin-4-yl)pyrimidin-2-amine], for which the IC50 by setting is: under setting [1], 1000 to 10000 nM; under setting [2], 1000 to 10000 nM.
With `CN(c1ccccc1)c1nccc(-c2cncc(O)c2)n1` [Compound 218, 5-(2-(methyl(phenyl)amino)pyrimidin-4-yl)pyridin-3-ol], the IC50 is, setting by setting: under setting [1], 10000 to 100000 nM; under setting [2], 10000 to 100000 nM.
As to `Oc1cc(-c2ccnc(Nc3cc(F)cc(F)c3)n2)ccn1` [Compound 147, 4-(2-((3,5-difluorophenyl)amino)pyrimidin-4-yl)pyridin-2-ol], the IC50 lay within 1000 to 10000 nM under setting [1] and 1000 to 10000 nM under setting [2].
Consider `COc1ccc(-c2ccnc(N(C)c3ccccc3)n2)cn1` [Compound 223, 4-(6-methoxypyridin-3-yl)-N-methyl-N-phenylpyrimidin-2-amine], for which the IC50 runs as follows: under setting [1], 10000 to 100000 nM; under setting [2], 10000 to 100000 nM.
`Cc1cnc(Nc2cccc(C(F)(F)F)c2)nc1-c1cnc2nc[nH]c2c1` [Compound 113, 4-(1H-imidazo[4,5-b]pyridin-6-yl)-5-methyl-N-(3-(trifluoromethyl)phenyl)pyrimidin-2-amine]: the IC50 under setting [1] is 1000 to 10000 nM and the IC50 under setting [2] fell in the range of 1000 to 10000 nM.
Turning to `Oc1ncc(-c2ccnc(Nc3cccc(C(F)(F)F)c3)n2)s1` [Compound 144, 5-(2-((3-(trifluoromethyl)phenyl)amino)pyrimidin-4-yl)thiazol-2-ol], the IC50 is, setting by setting: under setting [1], 200 to 1000 nM; under setting [2], 200 to 1000 nM.
In the case of `Oc1cc(-c2ccnc(Nc3ccc(F)c(F)c3)n2)ccn1` [Compound 209, 4-(2-((3,4-difluorophenyl)amino)pyrimidin-4-yl)pyridin-2-ol], the IC50 reads like this: under setting [1], 1000 to 10000 nM; under setting [2], 1000 to 10000 nM.
With `Fc1ccc(Nc2nccc(-c3ccc4[nH]cnc4c3)n2)cc1` [Compound 81, 4-(1H-benzo[d]imidazol-5-yl)-N-(4-fluorophenyl)pyrimidin-2-amine], the IC50 reads like this: under setting [1], 200 to 1000 nM; under setting [2], 200 to 1000 nM.
Take `O=C(O)c1cccc(Nc2nccc(-c3ccnc(O)c3)n2)c1` [Compound 196, 3-((4-(2-hydroxypyridin-4-yl)pyrimidin-2-yl)amino)benzoic acid]: the IC50 by setting is: under setting [1], 10000 to 100000 nM; under setting [2], 10000 to 100000 nM.
As to `Fc1cccc(Nc2nccc(-c3ccn4nccc4n3)n2)c1` [Compound 270, N-(3-fluorophenyl)-4-(pyrazolo[1,5-a]pyrimidin-5-yl)pyrimidin-2-amine], the half-maximal inhibitory concentration (IC50) by setting is: under setting [1], 1000 to 10000 nM; under setting [2], 1000 to 10000 nM.
